Key:
Caco-2 [1] = assay: Permeability from basolateral to apical side of human Caco-2 cells assessed as ratio of prodrug concentration in receiver to prodrug concentration in donor at 9.4 uM in donor chamber after 3 hrs; format: ADME, cell-based; settings: caco-2, 3 h
Caco-2 [2] = assay: Permeability from apical to basolateral side of human Caco-2 cells assessed as ratio of prodrug concentration in receiver to prodrug concentration in donor at 9.4 uM in donor chamber after 3 hrs; format: ADME, cell-based; settings: caco-2, 3 h
[3] = tested on: Human immunodeficiency virus 1; assay: Antiviral activity against HIV1 LAI infected in human CEM-SS cells assessed as reverse transcriptase activity after 5 days by MTT assay; format: functional, organism-based; settings: Human immunodeficiency virus 1, LAI, 120 h
[4] = Cytotoxicity against human MT4 cells after 4 days by MTT assay; format: cell-based
[5] = Apparent permeability from basolateral to apical side of human Caco-2 cells at 9.4 uM in donor chamber after 3 hrs; format: ADME, cell-based; settings: read-out: permeability
[6] = tested on: Human immunodeficiency virus 1; assay: Antiviral activity against HIV1 3B infected in human MT4 cells assessed as reverse transcriptase activity after 5 days by MTT assay; settings: Human immunodeficiency virus 1, 3B, MT4, 120 h
[7] = Cytotoxicity against human CEM-SS cells after 5 days by MTT assay; format: cell-based
[8] = Apparent permeability from apical to basolateral side of human Caco-2 cells at 9.4 uM in donor chamber after 3 hrs; format: ADME, cell-based; settings: read-out: permeability
[9] = Apparent permeability from apical to basolateral side of human Caco-2 cells at 330 uM in donor chamber after 3 hrs; format: ADME, cell-based; settings: read-out: permeability
Caco-2 [10] = assay: Permeability from basolateral to apical side of human Caco-2 cells assessed as ratio of prodrug concentration in receiver to prodrug concentration in donor at 330 uM in donor chamber after 3 hrs; format: ADME, cell-based; settings: caco-2, 3 h
[11] = tested on: Human immunodeficiency virus 1; assay: Antiviral activity against HIV1 LAI infected in human CEM-SS cells assessed as ratio of IC50 for prodrug to IC50 for parent compound; format: functional
[12] = tested on: Human immunodeficiency virus 1; assay: Antiviral activity against HIV1 3B infected in human MT4 cells assessed as ratio of IC50 for prodrug to IC50 for parent compound
[13] = Apparent permeability from basolateral to apical side of human Caco-2 cells at 330 uM in donor chamber after 3 hrs; format: ADME, cell-based; settings: read-out: permeability
Caco-2 [14] = assay: Permeability from apical to basolateral side of human Caco-2 cells assessed as ratio of prodrug concentration in receiver to prodrug concentration in donor at 330 uM in donor chamber after 3 hrs; format: ADME, cell-based; settings: caco-2, 3 h
[15] = Chemical stability assessed as hydrolysis half life at pH 7.3; format: physicochemical; settings: buffer
Caco-2 [16] = assay: Permeability from basolateral to apical side of human Caco-2 cells assessed as ratio of prodrug concentration in receiver to prodrug concentration in donor at 150 uM in donor chamber after 3 hrs; format: ADME, cell-based; settings: caco-2, 3 h
[17] = Apparent permeability from basolateral to apical side of human Caco-2 cells at 150 uM in donor chamber after 3 hrs; format: ADME, cell-based; settings: read-out: permeability
[18] = Apparent permeability from basolateral to apical side of human Caco-2 cells at 21 uM in donor chamber after 3 hrs; format: ADME, cell-based; settings: read-out: permeability
Caco-2 [19] = assay: Permeability from basolateral to apical side of human Caco-2 cells assessed as ratio of prodrug concentration in receiver to prodrug concentration in donor at 21 uM in donor chamber after 3 hrs; format: ADME, cell-based; settings: caco-2, 3 h
Caco-2 [20] = assay: Permeability from apical to basolateral side of human Caco-2 cells assessed as ratio of prodrug concentration in receiver to prodrug concentration in donor at 21 uM in donor chamber after 3 hrs; format: ADME, cell-based; settings: caco-2, 3 h
[21] = Apparent permeability from apical to basolateral side of human Caco-2 cells at 21 uM in donor chamber after 3 hrs; format: ADME, cell-based; settings: read-out: permeability
Caco-2 [22] = assay: Permeability from basolateral to apical side of human Caco-2 cells assessed as ratio of prodrug concentration in receiver to prodrug concentration in donor at 26.5 uM in donor chamber after 3 hrs; format: ADME, cell-based; settings: caco-2, 3 h
[23] = Apparent permeability from apical to basolateral side of human Caco-2 cells at 26.5 uM in donor chamber after 3 hrs; format: ADME, cell-based; settings: read-out: permeability
Caco-2 [24] = assay: Permeability from apical to basolateral side of human Caco-2 cells assessed as ratio of prodrug concentration in receiver to prodrug concentration in donor at 26.5 uM in donor chamber after 3 hrs; format: ADME, cell-based; settings: caco-2, 3 h
Caco-2 [25] = assay: Permeability from apical to basolateral side of human Caco-2 cells assessed as ratio of prodrug concentration in receiver to prodrug concentration in donor at 177 uM in donor chamber after 3 hrs; format: ADME, cell-based; settings: caco-2, 3 h
[26] = Apparent permeability from basolateral to apical side of human Caco-2 cells at 26.5 uM in donor chamber after 3 hrs; format: ADME, cell-based; settings: read-out: permeability
Caco-2 [27] = assay: Permeability from basolateral to apical side of human Caco-2 cells assessed as ratio of prodrug concentration in receiver to prodrug concentration in donor at 177 uM in donor chamber after 3 hrs; format: ADME, cell-based; settings: caco-2, 3 h
Caco-2 [28] = assay: Permeability from basolateral to apical side of human Caco-2 cells assessed as ratio of prodrug concentration in receiver to prodrug concentration in donor at 185 uM in donor chamber after 3 hrs; format: ADME, cell-based; settings: caco-2, 3 h
[29] = Apparent permeability from basolateral to apical side of human Caco-2 cells at 185 uM in donor chamber after 3 hrs; format: ADME, cell-based; settings: read-out: permeability
[30] = Apparent permeability from basolateral to apical side of human Caco-2 cells at 177 uM in donor chamber after 3 hrs; format: ADME, cell-based; settings: read-out: permeability
[31] = Apparent permeability from apical to basolateral side of human Caco-2 cells at 177 uM in donor chamber after 3 hrs; format: ADME, cell-based; settings: read-out: permeability
[32] = Apparent permeability from basolateral to apical side of human Caco-2 cells at 80 uM in donor chamber after 3 hrs; format: ADME, cell-based; settings: read-out: permeability
Caco-2 [33] = assay: Permeability from apical to basolateral side of human Caco-2 cells assessed as ratio of prodrug concentration in receiver to prodrug concentration in donor at 80 uM in donor chamber after 3 hrs; format: ADME, cell-based; settings: caco-2, 3 h
[34] = Apparent permeability from apical to basolateral side of human Caco-2 cells at 80 uM in donor chamber after 3 hrs; format: ADME, cell-based; settings: read-out: permeability
Caco-2 [35] = assay: Permeability from basolateral to apical side of human Caco-2 cells assessed as ratio of prodrug concentration in receiver to prodrug concentration in donor at 80 uM in donor chamber after 3 hrs; format: ADME, cell-based; settings: caco-2, 3 h
[36] = Apparent permeability from apical to basolateral side of human Caco-2 cells at 175 uM in donor chamber after 3 hrs; format: ADME, cell-based; settings: read-out: permeability
[37] = Apparent permeability from basolateral to apical side of human Caco-2 cells at 175 uM in donor chamber after 3 hrs; format: ADME, cell-based; settings: read-out: permeability

Compound | IC50 [3] | CC50 at 96 h [4] | IC50 [6] | CC50 at 120 h [7] | Ratio IC50 [11] | Ratio IC50 [12] | half-life [15] | other results
CC(C)(C)NC(=O)[C@@H]1C[C@@H]2CCCC[C@@H]2CN1C[C@@H](O)[C@H](Cc1ccccc1)NC(=O)[C@H](CC(N)=O)NC(=O)c1ccc2ccccc2n1 | 9 nM | > 10000 nM | 18 nM | > 10000 nM | – | – | – | Activity (Caco-2 [1]): 10.3%; Activity (Caco-2 [2]): 2.6%; Papp B→A at 3 h, 9.4 µM [5]: 1.1 ×10⁻⁶ cm/s; Papp A→B at 3 h, 9.4 µM [8]: 3.98 ×10⁻⁶ cm/s
CC(C)[C@H](N)C(=O)O[C@@H]1Cc2ccccc2[C@@H]1NC(=O)[C@H](Cc1ccccc1)C[C@H](O)CN1CCN(Cc2cccnc2)C[C@H]1C(=O)NC(C)(C)C.O=C(O)C(F)(F)F | 17 nM | > 100000 nM | 150 nM | > 100000 nM | >=1.7 | 7 | 46 h | Papp A→B at 3 h, 330 µM [9]: 6.44 ×10⁻⁶ cm/s; Activity (Caco-2 [10]): 18.1%; Papp B→A at 3 h, 330 µM [13]: 7.37 ×10⁻⁶ cm/s; Activity (Caco-2 [14]): 15.6%
CC(C)[C@H](N)C(=O)NCCCCCC(=O)O[C@@H](C[C@@H](Cc1ccccc1)C(=O)N[C@H]1c2ccccc2C[C@H]1OC(=O)CCCCCNC(=O)[C@@H](N)C(C)C)CN1CCN(Cc2cccnc2)C[C@H]1C(=O)NC(C)(C)C.O=C(O)C(F)(F)F.O=C(O)C(F)(F)F | 640 nM | 45000 nM | 2950 nM | > 50000 nM | >=64 | 134 | 80 h | Activity (Caco-2 [16]): 2.1%; Papp B→A at 3 h, 150 µM [17]: 6.26 ×10⁻⁶ cm/s
CC(C)[C@H](N)C(=O)O[C@H](CN1C[C@H]2CCCC[C@H]2C[C@H]1C(=O)NC(C)(C)C)[C@H](Cc1ccccc1)NC(=O)[C@H](CC(N)=O)NC(=O)c1ccc2ccccc2n1.O=C(O)C(F)(F)F | 140 nM | > 10000 nM | 290 nM | > 10000 nM | 16 | 16 | 40 h | Papp B→A at 3 h, 21 µM [18]: 3.43 ×10⁻⁶ cm/s; Activity (Caco-2 [19]): 9.6%; Activity (Caco-2 [20]): 6.1%; Papp A→B at 3 h, 21 µM [21]: 2.32 ×10⁻⁶ cm/s
Cc1c(OC(=O)CCCCCNC(=O)[C@@H](N)C(C)C)cccc1C(=O)N[C@@H](CSc1ccccc1)[C@H](O)CN1C[C@H]2CCCC[C@H]2C[C@H]1C(=O)NC(C)(C)C.O=C(O)C(F)(F)F | 94 nM | 10000 nM | 230 nM | > 10000 nM | 47 | – | 72 h | –
CC(C)[C@@H](N)C(=O)NCCCCCC(=O)O[C@H](CN1C[C@H]2CCCC[C@H]2C[C@H]1C(=O)NC(C)(C)C)[C@H](Cc1ccccc1)NC(=O)[C@H](CC(N)=O)NC(=O)c1ccc2ccccc2n1.O=C(O)C(F)(F)F.O=C(O)C(F)(F)F.O=C(O)C(F)(F)F | 175 nM | 5300 nM | 340 nM | 9000 nM | 19 | 19 | 60 h | Activity (Caco-2 [22]): 4.8%; Papp A→B at 3 h, 26.5 µM [23]: 0.58 ×10⁻⁶ cm/s; Activity (Caco-2 [24]): 2.2%; Activity (Caco-2 [25]): 14%; Papp B→A at 3 h, 26.5 µM [26]: 1.87 ×10⁻⁶ cm/s; Activity (Caco-2 [27]): 14.6%; Activity (Caco-2 [10]): 18.1%; Activity (Caco-2 [14]): 15.6%
CC(C)[C@H](N)C(=O)NCCCCCC(=O)O[C@@H]1Cc2ccccc2[C@@H]1NC(=O)[C@H](Cc1ccccc1)C[C@H](O)CN1CCN(Cc2cccnc2)C[C@H]1C(=O)NC(C)(C)C.O=C(O)C(F)(F)F | 36 nM | 47000 nM | 230 nM | > 10000 nM | >=3.6 | 10 | 72 h | Activity (Caco-2 [28]): 9%; Papp B→A at 3 h, 185 µM [29]: 2.92 ×10⁻⁶ cm/s
CC(C)[C@H](N)C(=O)O[C@@H](C[C@@H](Cc1ccccc1)C(=O)N[C@H]1c2ccccc2C[C@H]1O)CN1CCN(Cc2cccnc2)C[C@H]1C(=O)NC(C)(C)C.O=C(O)C(F)(F)F | 90 nM | 100000 nM | 27 nM | > 100000 nM | >=9 | 1 | 68 h | Activity (Caco-2 [25]): 14%; Papp B→A at 3 h, 177 µM [30]: 7.08 ×10⁻⁶ cm/s; Activity (Caco-2 [27]): 14.6%; Papp A→B at 3 h, 177 µM [31]: 5.13 ×10⁻⁶ cm/s
Cc1c(OC(=O)CCCCCNC(=O)[C@@H](N)C(C)C)cccc1C(=O)N[C@@H](CSc1ccccc1)[C@@H](CN1C[C@H]2CCCC[C@H]2C[C@H]1C(=O)NC(C)(C)C)OC(=O)CCCCCNC(=O)[C@H](N)C(C)C.O=C(O)C(F)(F)F.O=C(O)C(F)(F)F | 15500 nM | 4800 nM | – | 5000 nM | 7750 | – | 82 h | –
Cc1c(O)cccc1C(=O)N[C@@H](CSc1ccccc1)[C@H](O)CN1C[C@H]2CCCC[C@H]2C[C@H]1C(=O)NC(C)(C)C | 2 nM | – | – | – | – | – | – | Papp B→A at 3 h, 80 µM [32]: 2.51 ×10⁻⁶ cm/s; Activity (Caco-2 [33]): 2.7%; Papp A→B at 3 h, 80 µM [34]: 1.03 ×10⁻⁶ cm/s; Activity (Caco-2 [35]): 6.3%
CC(C)(C)NC(=O)[C@@H]1CN(Cc2cccnc2)CCN1C[C@@H](O)C[C@@H](Cc1ccccc1)C(=O)N[C@H]1c2ccccc2C[C@H]1O.O=S(=O)(O)O [INDINAVIR SULFATE] | ≤ 10 nM | > 100000 nM | 22 nM | > 100000 nM | – | – | – | Papp A→B at 3 h, 175 µM [36]: 1.03 ×10⁻⁶ cm/s; Papp B→A at 3 h, 175 µM [37]: 15.5 ×10⁻⁶ cm/s

Source: ChEMBL document CHEMBL1140955, “Synthesis and in vitro biological evaluation of valine-containing prodrugs derived from clinically used HIV-protease inhibitors” (Eur J Med Chem, 2008)
